From paper PMC6337671, “Simultaneous Determination of Five Phenolic Acids and Four Flavonoid Glycosides in Rat Plasma Using HPLC-MS/MS and Its Application to a Pharmacokinetic Study after a Single Intravenous Administration of Kudiezi Injection” (Molecules, 2018)
Like-named read-outs stand apart in the source and are kept apart here.

Assays:
[1] = Pharmacokinetic study in rats after a single intravenous administration of concentrated Kudiezi injection (HPLC-MS/MS of plasma); assay type: in vivo, Sprague-Dawley rats; conditions: single i.v. 3.6 mL/kg of 15 times concentrated KI, mean ± SD; for MRT last: n = 5, read-out: MRT0-t; for MRT inf: n = 5, read-out: MRT0-∞
Experimental: Eight male Sprague-Dawley rats (200 ± 20 g) were obtained from Laboratory Animal Center of Fujian Medical University (Fuzhou, China). The animal studies were conducted in accordance with the Guide for the Care and Use of Laboratory Animals published by the USA National Institutes of Health (NIH Publication No. 85-23, revised 1996) and were approved by the Animal Ethic Review Committee of Fujian Medical University (Fuzhou, China). The rats were housed in rat cages (48 × 29 × 18 cm^3), in a unidirectional airflow room at a temperature of 22 ± 2 °C, a relative humidity of 40–70% and a 12 h light/dark cycle. They were fed with freely available commercial food and filtered tap water, and fasted with free access to water for 12 h before the experiments. Three of these rats were selected randomly as blank group with the above mentioned feeding conditions and without administration of drug, and after 24 h from the beginning of the experiment, their blood was collected up exhaustively from abdominal aorta to provide blank plasma for methodological validation. […] All rats were acclimated to the facilities and environment for 7 days before the experiments.
After administration, the rat tail was carefully cleaned with alcohol soaked cotton balls around the injection site to remove the residual drug. Blood was collected from the cut-tail before dosing and at the following time points: 2.5, 5, 10, 15, 20, 30, 45 min and 1, 2, 3, 4, 6, 8, 12 and 24 h after dosing. Plasma was isolated from the blood samples by centrifugation and then stored at −80 °C until analysis.
Noncompartmental pharmacokinetic parameters were calculated by DAS 3.0 software (Version DAS 3.2.8, Chinese Pharmacologic Society, Beijing, China). All the results are expressed as mean ± SD. A single-tailed Student’s t test was performed in the work.

[2] = Stability of the nine components in rat plasma QC samples (auto-sampler, freeze-thaw, long-term); assay type: physicochemical; conditions: n = 5; for 6 h in Auto-Sample, RE: extracted rat plasma; for Freeze-Thaw Stability (Three Cycles), RE / Long-Term Stability (−80 °C, 14 Days), RE: rat plasma
Experimental: The stability of the nine components in rat plasma was investigated under a variety of storage and process conditions. Table 4 summarizes the results of post-preparation (The QC samples were kept in the auto-sampler for 6 h), freeze and thaw and long-term (at −80 °C for 14 days) stability experiments.
Stability of the nine components were assessed under the condition of placing extracted plasma samples in auto-sampler for 6 h, as well as placing plasma samples within freeze-thaw three cycles and at −80 °C for 14 days. LQC, MQC and HQC samples with five replicates at each level were kept at the above conditions and analyzed against freshly prepared calibrators as the reference.

[3] = system: Mas-related G protein coupled receptor X2; parameters: method as in PMID 30048896; conditions: cited from earlier work
[4] = male, Sprague-Dawley, rat, plasma, iv, 3.6 mL/kg, n = 5
[5] = male, Sprague-Dawley, rat, plasma, iv, 3.6 mL/kg, n = 5, read-out: AUC0-t
[6] = male, Sprague-Dawley, rat, plasma, iv, 3.6 mL/kg
[7] = male, Sprague-Dawley, rat, plasma, iv, 3.6 mL/kg, n = 5, read-out: Vd
[8] = HQC spiked 2000 ng/mL (4000 ng/mL for II)
[9] = LQC spiked 15 ng/mL (30 ng/mL for II)
[10] = MQC spiked 500 ng/mL (1000 ng/mL for II)

SMILES: O=C(O)/C=C/c1ccc(O)c(O)c1 [Compound V, caffeic acid]
- AUC(0-inf) [1, 4]: 237 ± 43.6 ng·h/mL
- clearance [1, 4]: 34.7 mL/min/kg
- half-life [1, 4]: 6.09 ± 0.9 h
- AUC(0-t) [1, 5]: 146 ± 40.8 ng·h/mL
- MRT last [1, 6]: 4.09 ± 1.36 h
- MRT inf [1, 6]: 9.75 ± 1.7 h
- Vd [1, 7]: 17.9 ± 1.44 L/kg
- 6 h in Auto-Sample, RE [2, 8]: −11.88%
- 6 h in Auto-Sample, RE [2, 9]: −18.04%
- 6 h in Auto-Sample, RE [2, 10]: −14.10%
- Freeze-Thaw Stability (Three Cycles), RE [2, 8]: −7.76%
- Long-Term Stability (−80 °C, 14 Days), RE [2, 8]: 7.83%
- Freeze-Thaw Stability (Three Cycles), RE [2, 9]: −13.66%
- Long-Term Stability (−80 °C, 14 Days), RE [2, 9]: −17.21%
- Freeze-Thaw Stability (Three Cycles), RE [2, 10]: −2.10%
- Long-Term Stability (−80 °C, 14 Days), RE [2, 10]: −5.99%

SMILES: O=c1cc(-c2ccc(O)c(O)c2)oc2cc(O[C@@H]3O[C@H](CO[C@@H]4O[C@H](CO)[C@@H](O)[C@H](O)[C@H]4O)[C@@H](O)[C@H](O)[C@H]3O)cc(O)c12 [Compound VI, luteolin-7-O-β-D-gentiobioside]
- AUC(0-inf) [1, 4]: 173 ± 15 ng·h/mL
- clearance [1, 4]: 128 mL/min/kg
- half-life [1, 4]: 0.23 ± 0.12 h
- AUC(0-t) [1, 5]: 164 ± 8.34 ng·h/mL
- MRT last [1, 6]: 0.2 ± 0.08 h
- MRT inf [1, 6]: 0.28 ± 0.15 h
- Vd [1, 7]: 2.51 ± 1.13 L/kg
- 6 h in Auto-Sample, RE [2, 8]: 0.23%
- 6 h in Auto-Sample, RE [2, 9]: −14.11%
- 6 h in Auto-Sample, RE [2, 10]: −14.25%
- Freeze-Thaw Stability (Three Cycles), RE [2, 8]: 9.34%
- Long-Term Stability (−80 °C, 14 Days), RE [2, 8]: −5.24%
- Freeze-Thaw Stability (Three Cycles), RE [2, 9]: −13.29%
- Long-Term Stability (−80 °C, 14 Days), RE [2, 9]: −0.68%
- Freeze-Thaw Stability (Three Cycles), RE [2, 10]: −3.78%
- Long-Term Stability (−80 °C, 14 Days), RE [2, 10]: 2.31%

SMILES: O=C(/C=C/c1ccc(O)c(O)c1)O[C@@H]1C[C@](O)(C(=O)O)C[C@@H](O)[C@H]1O [I, 5-caffeoylquinic acid]
- AUC(0-inf) [1, 4]: 209 ± 75.7 ng·h/mL
- clearance [1, 4]: 49.8 mL/min/kg
- half-life [1, 4]: 2.22 ± 1.15 h
- AUC(0-t) [1, 5]: 170 ± 55.7 ng·h/mL
- MRT last [1, 6]: 2.29 ± 1.65 h
- MRT inf [1, 6]: 3.94 ± 2.71 h
- Vd [1, 7]: 8.22 ± 2.51 L/kg
- 6 h in Auto-Sample, RE [2, 8]: −5.26%
- 6 h in Auto-Sample, RE [2, 9]: −15.03%
- 6 h in Auto-Sample, RE [2, 10]: −14.93%
- Freeze-Thaw Stability (Three Cycles), RE [2, 8]: −2.66%
- Long-Term Stability (−80 °C, 14 Days), RE [2, 8]: −3.42%
- Freeze-Thaw Stability (Three Cycles), RE [2, 9]: −16.92%
- Long-Term Stability (−80 °C, 14 Days), RE [2, 9]: −10.71%
- Freeze-Thaw Stability (Three Cycles), RE [2, 10]: −8.67%
- Long-Term Stability (−80 °C, 14 Days), RE [2, 10]: −1.12%

SMILES: O=C(/C=C/c1ccc(O)c(O)c1)O[C@@H](C(=O)O)[C@@H](O)C(=O)O [II, caftaric acid]
- AUC(0-inf) [1, 4]: 3080 ± 483 ng·h/mL
- clearance [1, 4]: 64.2 mL/min/kg
- half-life [1, 4]: 3.93 ± 0.47 h
- AUC(0-t) [1, 5]: 2760 ± 400 ng·h/mL
- MRT last [1, 6]: 3.84 ± 1.84 h
- MRT inf [1, 6]: 6.25 ± 2.83 h
- Vd [1, 7]: 22.1 ± 6.21 L/kg
- 6 h in Auto-Sample, RE [2, 8]: 3.63%
- 6 h in Auto-Sample, RE [2, 9]: −12.49%
- 6 h in Auto-Sample, RE [2, 10]: −9.25%
- Freeze-Thaw Stability (Three Cycles), RE [2, 8]: 3.72%
- Long-Term Stability (−80 °C, 14 Days), RE [2, 8]: −10.05%
- Freeze-Thaw Stability (Three Cycles), RE [2, 9]: −17.36%
- Long-Term Stability (−80 °C, 14 Days), RE [2, 9]: 1.30%
- Freeze-Thaw Stability (Three Cycles), RE [2, 10]: 2.66%
- Long-Term Stability (−80 °C, 14 Days), RE [2, 10]: −5.34%

SMILES: O=C(/C=C/c1ccc(O)c(O)c1)O[C@@H]1C[C@](O)(C(=O)O)C[C@@H](O)[C@H]1O [III, chlorogenic acid]
- AUC0-∞ ([1]; rat plasma, n = 5): 199.84 ± 37.15 ng·h/mL
- AUC(0-t) ([1]; rat plasma, n = 5): 155.43 ± 23.39 ng·h/mL
- Cl ([1]; rat plasma, n = 5): 42.2 ± 7.17 mL/min/kg
- MRT0-t ([1]; rat plasma, n = 5): 3.30 ± 0.99 h
- MRT0-∞ ([1]; rat plasma, n = 5): 5.93 ± 1.39 h
- Vd ([1]; rat plasma, n = 5): 11.96 ± 3.10 L/kg
- t1/2 ([1]; rat plasma, n = 5): 3.36 ± 0.97 h
- 6 h in Auto-Sample, RE [2, 8]: −2.78%
- 6 h in Auto-Sample, RE [2, 9]: −7.40%
- 6 h in Auto-Sample, RE [2, 10]: −14.11%
- Freeze-Thaw Stability (Three Cycles), RE [2, 8]: 2.98%
- Long-Term Stability (−80 °C, 14 Days), RE [2, 8]: 2.07%
- Freeze-Thaw Stability (Three Cycles), RE [2, 9]: −18.29%
- Long-Term Stability (−80 °C, 14 Days), RE [2, 9]: −1.71%
- Freeze-Thaw Stability (Three Cycles), RE [2, 10]: −5.77%
- Long-Term Stability (−80 °C, 14 Days), RE [2, 10]: −1.20%

SMILES: O=C(/C=C/c1ccc(O)c(O)c1)O[C@H]1[C@H](O)C[C@](O)(C(=O)O)C[C@H]1O [IV, 4-caffeoylquinic acid]
- AUC(0-inf) [1, 4]: 209 ± 54 ng·h/mL
- clearance [1, 4]: 30.2 mL/min/kg
- half-life [1, 4]: 2.92 ± 1.13 h
- AUC(0-t) [1, 5]: 160 ± 39.4 ng·h/mL
- MRT last [1, 6]: 2.72 ± 1.32 h
- MRT inf [1, 6]: 5.07 ± 2.17 h
- Vd [1, 7]: 7.03 ± 1.29 L/kg
- 6 h in Auto-Sample, RE [2, 8]: 6.12%
- 6 h in Auto-Sample, RE [2, 9]: −14.16%
- 6 h in Auto-Sample, RE [2, 10]: −15.00%
- Freeze-Thaw Stability (Three Cycles), RE [2, 8]: 6.55%
- Long-Term Stability (−80 °C, 14 Days), RE [2, 8]: 2.14%
- Freeze-Thaw Stability (Three Cycles), RE [2, 9]: −14.73%
- Long-Term Stability (−80 °C, 14 Days), RE [2, 9]: −10.44%
- Freeze-Thaw Stability (Three Cycles), RE [2, 10]: −0.15%
- Long-Term Stability (−80 °C, 14 Days), RE [2, 10]: −1.40%

SMILES: O=C(O)[C@H]1O[C@@H](Oc2cc(O)c3c(=O)cc(-c4ccc(O)cc4)oc3c2)[C@H](O)[C@@H](O)[C@@H]1O [IX, apigenin-7-O-β-D-glucuronide]
- AUC(0-inf) [1, 4]: 56.1 ± 8.49 ng·h/mL
- clearance [1, 4]: 168 mL/min/kg
- half-life [1, 4]: 0.07 ± 0.01 h
- AUC(0-t) [1, 5]: 55.7 ± 8.5 ng·h/mL
- MRT last [1, 6]: 0.09 ± 0.01 h
- MRT inf [1, 6]: 0.09 ± 0.01 h
- Vd [1, 7]: 1 ± 0.24 L/kg
- 6 h in Auto-Sample, RE [2, 8]: 7.78%
- 6 h in Auto-Sample, RE [2, 9]: −13.77%
- 6 h in Auto-Sample, RE [2, 10]: −1.56%
- Freeze-Thaw Stability (Three Cycles), RE [2, 8]: 3.36%
- Long-Term Stability (−80 °C, 14 Days), RE [2, 8]: 5.33%
- Freeze-Thaw Stability (Three Cycles), RE [2, 9]: −13.08%
- Long-Term Stability (−80 °C, 14 Days), RE [2, 9]: −2.73%
- Freeze-Thaw Stability (Three Cycles), RE [2, 10]: 0.53%
- Long-Term Stability (−80 °C, 14 Days), RE [2, 10]: −0.28%
- identified as potential anaphylactoid component in KI [3]: potential anaphylactoid components

SMILES: O=C(O)[C@H]1O[C@@H](Oc2cc(O)c3c(=O)cc(-c4ccc(O)c(O)c4)oc3c2)[C@H](O)[C@@H](O)[C@@H]1O [VII, luteolin-7-O-β-D-glucuronide]
- AUC(0-inf) [1, 4]: 680 ± 109 ng·h/mL
- clearance [1, 4]: 95.5 mL/min/kg
- half-life [1, 4]: 0.66 ± 0.2 h
- AUC(0-t) [1, 5]: 672 ± 107 ng·h/mL
- MRT last [1, 6]: 0.25 ± 0.11 h
- MRT inf [1, 6]: 0.3 ± 0.12 h
- Vd [1, 7]: 5.3 ± 1.21 L/kg
- 6 h in Auto-Sample, RE [2, 8]: 5.65%
- 6 h in Auto-Sample, RE [2, 9]: −7.74%
- 6 h in Auto-Sample, RE [2, 10]: −12.46%
- Freeze-Thaw Stability (Three Cycles), RE [2, 8]: 9.76%
- Long-Term Stability (−80 °C, 14 Days), RE [2, 8]: 8.01%
- Freeze-Thaw Stability (Three Cycles), RE [2, 9]: −10.80%
- Long-Term Stability (−80 °C, 14 Days), RE [2, 9]: −2.91%
- Freeze-Thaw Stability (Three Cycles), RE [2, 10]: −1.08%
- Long-Term Stability (−80 °C, 14 Days), RE [2, 10]: −0.26%
- identified as potential anaphylactoid component in KI [3]: potential anaphylactoid components

SMILES: O=c1cc(-c2ccc(O)c(O)c2)oc2cc(O[C@@H]3O[C@H](CO)[C@@H](O)[C@H](O)[C@H]3O)cc(O)c12 [VIII, luteolin-7-O-β-D-glucoside]
- AUC(0-inf) [1, 4]: 31 ± 2.09 ng·h/mL
- clearance [1, 4]: 138 mL/min/kg
- half-life [1, 4]: 0.13 ± 0.02 h
- AUC(0-t) [1, 5]: 29.5 ± 2.38 ng·h/mL
- MRT last [1, 6]: 0.09 ± 0.02 h
- MRT inf [1, 6]: 0.11 ± 0.02 h
- Vd [1, 7]: 1.51 ± 0.35 L/kg
- 6 h in Auto-Sample, RE [2, 8]: 0.65%
- 6 h in Auto-Sample, RE [2, 9]: −12.91%
- 6 h in Auto-Sample, RE [2, 10]: −8.04%
- Freeze-Thaw Stability (Three Cycles), RE [2, 8]: 3.11%
- Long-Term Stability (−80 °C, 14 Days), RE [2, 8]: 11.47%
- Freeze-Thaw Stability (Three Cycles), RE [2, 9]: −11.91%
- Long-Term Stability (−80 °C, 14 Days), RE [2, 9]: −1.72%
- Freeze-Thaw Stability (Three Cycles), RE [2, 10]: 0.67%
- Long-Term Stability (−80 °C, 14 Days), RE [2, 10]: 0.81%
- identified as potential anaphylactoid component in KI [3]: potential anaphylactoid components
